Measurements from the NIST ThermoML archive (doi:10.1021/je900864n).

Experiments:
[1] = refractive index (Na D-line) (dimensionless); details: 101.33 kPa, Liquid, Standard Abbe refractometry
[2] = 101.33 kPa, Liquid
[3] = refractive index (other wavelength) (dimensionless); wn = mass fraction of the nth substance listed; details: 101 kPa, Liquid, Wavelength=632.8 nm, Standard Abbe refractometry
[4] = refractive index (other wavelength) (dimensionless); details: 101 kPa, Liquid, Standard Abbe refractometry

OCCCCO [1,4-butanediol]
Details | mass density [kg/m3] | refractive index
[1], 294.23 K | – | 1.4447
[1], 297.67 K | – | 1.4437
[1], 300.86 K | – | 1.4428
[1], 303.23 K | – | 1.4422
[1], 306.21 K | – | 1.4414
[1], 309.13 K | – | 1.4406
[1], 313.69 K | – | 1.4393
[2], 293.15 K | 1016.37 | –
[2], 298.15 K | 1013.04 | –
[2], 303.15 K | 1009.96 | –
[2], 308.15 K | 1006.75 | –
[2], 313.15 K | 1003.55 | –
[2], 318.15 K | 1000.72 | –

OCCCCO [1,4-butanediol] + CCCCn1cc[n+](C)c1.F[B-](F)(F)F
[3]
Details | refractive index
296.24 K, w2 = 0.894 | 1.4221
298.19 K, w2 = 0.894 | 1.4216
300.13 K, w2 = 0.894 | 1.4211
301.24 K, w2 = 0.786 | 1.4216
302.15 K, w2 = 0.894 | 1.4206
303.16 K, w2 = 0.786 | 1.4211
303.25 K, w2 = 0.686 | 1.4223
304.14 K, w2 = 0.894 | 1.42
304.22 K, w2 = 0.579 | 1.4237
304.24 K, w2 = 0.786 | 1.4208
305.26 K, w2 = 0.686 | 1.4218
306.24 K, w2 = 0.579 | 1.4231
306.25 K, w2 = 0.094 | 1.4367
306.69 K, w2 = 0.894 | 1.4194
306.7 K, w2 = 0.484 | 1.4247
307.2 K, w2 = 0.094 | 1.4364
307.21 K, w2 = 0.786 | 1.42
307.29 K, w2 = 0.686 | 1.4212
308.22 K, w2 = 0.484 | 1.4243
308.24 K, w2 = 0.094 | 1.4361
308.27 K, w2 = 0.579 | 1.4225
309.2 K, w2 = 0.686 | 1.4207
309.23 K, w2 = 0.094 | 1.4358
309.24 K, w2 = 0.786 | 1.4195
309.26 K, w2 = 0.381 | 1.4264
309.55 K, w2 = 0.19 | 1.4322
309.73 K, w2 = 0.484 | 1.4238
309.88 K, w2 = 0.286 | 1.4289
310.17 K, w2 = 0.094 | 1.4355
310.22 K, w2 = 0.579 | 1.422
310.64 K, w2 = 0.381 | 1.426
311.22 K, w2 = 0.286 | 1.4285
311.22 K, w2 = 0.686 | 1.4202
311.25 K, w2 = 0.19 | 1.4317
311.33 K, w2 = 0.484 | 1.4234
311.85 K, w2 = 0.786 | 1.4188
312.19 K, w2 = 0.579 | 1.4214
312.27 K, w2 = 0.094 | 1.4349
312.31 K, w2 = 0.381 | 1.4255
312.78 K, w2 = 0.19 | 1.4312
312.88 K, w2 = 0.484 | 1.4229
313 K, w2 = 0.286 | 1.4279
313.28 K, w2 = 0.686 | 1.4196
313.79 K, w2 = 0.381 | 1.4251
314.29 K, w2 = 0.19 | 1.4308
314.29 K, w2 = 0.579 | 1.4208
314.31 K, w2 = 0.484 | 1.4225
314.32 K, w2 = 0.094 | 1.4343
314.39 K, w2 = 0.286 | 1.4275
315.65 K, w2 = 0.381 | 1.4246
315.79 K, w2 = 0.286 | 1.4271
316.13 K, w2 = 0.19 | 1.4302
317.3 K, w2 = 0.19 | 1.4299
317.35 K, w2 = 0.286 | 1.4266
317.38 K, w2 = 0.381 | 1.4241

CCCCn1cc[n+](C)c1.F[B-](F)(F)F [1-butyl-3-methylimidazolium tetrafluoroborate]
[4], Wavelength=632.8 nm
Details | refractive index
286.91 K | 1.4228
288.89 K | 1.4223
290.92 K | 1.4218
293.04 K | 1.4212
295.03 K | 1.4207
297.04 K | 1.4202
299.02 K | 1.4197
304.12 K | 1.4184
309.02 K | 1.4171
314.35 K | 1.4157
318.92 K | 1.4146

[2]
Details | mass density [kg/m3]
293.15 K | 1210.05
298.15 K | 1206.32
303.15 K | 1202.59
308.15 K | 1198.97
313.15 K | 1195.24

OCCCO [propan-1,3-diol]
[4], Wavelength=63.28 nm
Details | refractive index
287.46 K | 1.4396
288.88 K | 1.4392
290.94 K | 1.4387
293.1 K | 1.4381
295.16 K | 1.4375
297.02 K | 1.437
299.09 K | 1.4365
301.21 K | 1.4359

[2]
Details | mass density [kg/m3]
293.15 K | 1053.48
298.15 K | 1050.28
303.15 K | 1047.26
308.15 K | 1044.11
313.15 K | 1040.94

OCCCO [propan-1,3-diol] + CCCCn1cc[n+](C)c1.F[B-](F)(F)F
[3]
Details | refractive index
286.8 K, w2 = 0.698 | 1.424
286.81 K, w2 = 0.796 | 1.4233
287.24 K, w2 = 0.901 | 1.4228
288.87 K, w2 = 0.796 | 1.4228
288.88 K, w2 = 0.901 | 1.4224
289.37 K, w2 = 0.698 | 1.4234
290.78 K, w2 = 0.602 | 1.4239
290.86 K, w2 = 0.796 | 1.4223
291 K, w2 = 0.901 | 1.4219
291.2 K, w2 = 0.698 | 1.4229
292.89 K, w2 = 0.796 | 1.4218
292.95 K, w2 = 0.901 | 1.4214
293.29 K, w2 = 0.602 | 1.4232
293.3 K, w2 = 0.698 | 1.4223
294.94 K, w2 = 0.698 | 1.4219
294.99 K, w2 = 0.901 | 1.4209
295.08 K, w2 = 0.602 | 1.4227
295.86 K, w2 = 0.796 | 1.4211
296.02 K, w2 = 0.513 | 1.4235
296.98 K, w2 = 0.602 | 1.4222
297 K, w2 = 0.901 | 1.4204
297.16 K, w2 = 0.0947 | 1.4328
297.94 K, w2 = 0.698 | 1.4211
297.96 K, w2 = 0.796 | 1.4206
298.14 K, w2 = 0.513 | 1.4229
298.49 K, w2 = 0.0947 | 1.4325
298.98 K, w2 = 0.602 | 1.4217
299.51 K, w2 = 0.384 | 1.4245
299.54 K, w2 = 0.299 | 1.4263
299.6 K, w2 = 0.194 | 1.4289
300 K, w2 = 0.0947 | 1.4321
300 K, w2 = 0.513 | 1.4224
300 K, w2 = 0.901 | 1.4196
301.08 K, w2 = 0.194 | 1.4285
301.1 K, w2 = 0.602 | 1.4211
301.22 K, w2 = 0.384 | 1.424
301.4 K, w2 = 0.299 | 1.4258
301.52 K, w2 = 0.0947 | 1.4317
302.02 K, w2 = 0.513 | 1.4218
302.17 K, w2 = 0.194 | 1.4282
303.06 K, w2 = 0.0947 | 1.4313
303.53 K, w2 = 0.384 | 1.4234
303.55 K, w2 = 0.299 | 1.4252
304.01 K, w2 = 0.513 | 1.4212
304.13 K, w2 = 0.194 | 1.4276
304.93 K, w2 = 0.513 | 1.4209
305.12 K, w2 = 0.0947 | 1.4308
305.28 K, w2 = 0.384 | 1.4229
305.3 K, w2 = 0.299 | 1.4247
305.51 K, w2 = 0.194 | 1.4272
307.32 K, w2 = 0.194 | 1.4267
307.43 K, w2 = 0.299 | 1.4241
307.44 K, w2 = 0.384 | 1.4223
308.96 K, w2 = 0.384 | 1.4219
309.08 K, w2 = 0.299 | 1.4236
